{"source": "patent US11420994B2", "about": "“Carbon-monoxide-releasing molecules and therapeutic applications thereof” (GEORGIA STATE UNIVERSITY RESEARCH FOUNDATION, INC., priority 2016, dated 2022)", "key": {"[1]": {"assay": "Reaction of TPCPD with cyclooctynes at 50 mM, time to completion", "assay_type": "physicochemical", "settings": "50 mM concentration"}, "RAW cells": {"test_system": "RAW cells", "assay": "WST-1 cytotoxicity test", "assay_type": "cell-based, mouse", "description": "In order to assess the cytotoxic effect of the reactants, 1 and 6a, as well as product 31, on RAW cells, the cytotoxicity test WST-1 was performed to examine induction by TPCPD (1) and BCN (6a) over varying concentrations and periods of time (FIGS. 3a-c).\nDifferent concentrations of each molecule were assessed: from 0.78 to 100 μM for 1 and 31 and 7.8 to 1000 μM for 6a. Different time points were assessed (1 h, 4 h, 8 h and 24 h). Triton 0.1% was used as a positive control of cytotoxicity and the subsequent value was established as 100% of cytotoxicity."}, "TNF-α": {"test_system": "TNF-α", "assay": "TNF-α ELISA in LPS treated RAW 264.7 cells pre-treated with CO prodrug", "assay_type": "cell-based, mouse", "settings": "pre-treated 5 h, then LPS 1 h", "description": "RAW 264.7 cells were seeded in the 48-well plate one day before the experiment.\nLPS was used to initialize the inflammatory response in RAW 264.7 cells and trigger the expression of cytokines. RAW 264.7 cells were pre-treated with different concentrations of 10b or 44b product for 5 hours. Thereafter, […] LPS was added with into the cell culture media. For TNF-α test, the cell culture supernatant was collected after 1 hour of LPS treatment. For IL-6 test, the cell culture supernatant was collected after 4 hours of LPS treatment. Cell culture without LPS treatment was used as control.\n10a-10d, and 100 with different release rates were chosen to test their inhibitory effect against lipopolysaccharide (LPS) induced TNF-α secretion in RAW 264.7 cells. […] This was followed by the treatment of LPS for another 1 h. Then the cell culture supernatants were subjected to ELISA assay for TNF-α levels."}, "[2]": {"assay": "Fluorescence properties of the cycloaddition products", "assay_type": "physicochemical", "settings": "for λem emission wavelength / λex excitation wavelength: of the cycloaddition products 44a-44f and 100a; for Φ quantum yield: of the cycloaddition products 44a-44f and 100a in MeOH, quinine sulfate as the standard"}, "[3]": {"assay": "CO release kinetics by increase of fluorescence intensity", "assay_type": "physicochemical", "settings": "DMSO/PBS (pH = 7.4) 5:1 at 37° C.", "description": "Compound 10a was dissolved indifferent solvents including CH2Cl2 (25° C.), CH3CN (25° C.), DMSO (25° C.), DMSO/PBS (10:1, 25° C.), DMSO/PBS (5:1, 25° C.), and DMSO/PBS (5:1, 37° C.) to give a final concentration of around 100 μM, and CO release was monitored by fluorescence intensity at 450 nm. Each experiment was repeated three times independently. The CO release rate (first order reaction rate) in DCM, CH3CN, DMSO, DMSO/PBS (10:1), DMSO/PBS (5:1), and DMSO/PBS (5:1, 37° C.) were different and their individual rate constant was calculated to be 2.3±0.2, 3.6±0.4, 6.6±0.6, 7.7±0.6, 11.0±1.4 and 22.4±3.2 h^−1, respectively. […] The CO release rate increased along with the polarity of the solvent."}, "TNBS induced colitis": {"test_system": "TNBS induced colitis", "assay": "TNBS induced colitis in mice", "assay_type": "in vivo", "experimental": "Male adult C57BL/6 mice (8-12 weeks, 20-25 g) were obtained from Sichuan University laboratory animal center, and housed in standard conditions with constant temperature (22±2° C.) and 12 h light-dark cycle, free to sterile water and standard food.\nTNBS (Trinitrobenzene sulfonic acid) enema was used for colitis induction.^3 Mice were randomly assigned into four groups: sham control group, TNBS model group, 10b treatment group and 44b group. Briefly, mice were fasted for 24 h, and then lightly anesthetized with 1% isoflurane. TNBS (in saline-ethanol, 50:50, v/v) solution 50 μL was infused into the colon using a cannula with the depth of 4 cm from anus. Mice in sham control group received 50 μL vehicle (saline-ethanol, 50:50, v/v). Mice were held with a vertical position for at least 30s after infusion, for sake of homogenous distribution and retention of TNBS. Mice would not be put back to the cage until they wake up and have autonomous respiration.\nDrug administration. Vehicle solution (Solutol:saline=30:70), 10b (15 mg/kg) and 44b (15 mg/kg) was i.p. injected 1 hour before model construction; and 24 h, 48 h and 72 h after model construction. Euthanasia was conducted on 1st/3rd/7th day respectively through intraperitoneally injecting of pentobarbital sodium, and samples were removed and analyzed later.\nMacroscopic evaluation of colitis damage. Colons were removed quickly and lengths were measured and represented in centimeter. After that, colons were longitudinally excised and carefully washed with ice-cold normal saline. Macroscopic signs of colon damage were evaluated by an experimenter blind to the mice grouping, according to an established semi-quantitative scoring system: Ulcer (0.5 points=0.5 cm); Colonic shortening (1 point≥15%, 2 points≥25%, based on the average length of colons from the control group); Every additional presence of hemorrhage, diarrhea or fecal blood added 1 point to the score. Intestinal wall thickness was measured in millimeter and recorded as well.\nMice were dosed with 10b (15 mg/kg), 44b (15 mg/kg), or the vehicle (solutol/saline=30:70) control by intraperitoneal injection 1 h before the model construction, and then dosed again at 24 h, 48 h and 72 h time points after the model construction; and then sacrificed. Colon was removed for macroscopic evaluation of colitis damage."}, "[4]": {"assay": "Determination of CO release rates (fluorescence or UV absorbance)", "assay_type": "physicochemical", "settings": "DMSO/PBS (4:1) at 37° C.", "description": "For CO prodrugs with naphthalene scaffold, the CO release rate is easily done by monitoring the fluorescence intensity of the cyclized product. For the others, the CO release rate was determined by employing the UV absorbance difference between the prodrugs and the cyclized product."}, "[5]": {"assay": "Kinetics of the Diels-Alder reaction of TPCPD with exo-BCN (UV-Vis)", "assay_type": "physicochemical", "description": "Separate solutions of pure TPCPD (1) and pure exo-BCN (6a) (>95-98% by H-NMR) were prepared in HPLC-grade methanol (acetonitrile, 1,2-dichloroethane, dioxane) at room temperature. The stability of TPCPD in methanol (25 μM) was examined by monitoring its absorption maximum at 335 nm. The solutions containing TPCPD (1, 50 μM, 400 μL) and 18-fold excess of exo-BCN (6a, 900 μM, 400 μL) were added into quartz cuvettes, thoroughly mixed and sealed with a PTFE cap. All kinetic runs were triplicates. Curve fitting was operated in Prism5 software.\nThe reaction between 1 and 6a (Scheme 8) leads to significant changes in the UV-Vis spectrum of TPCPD […] due to its conversion to the cyclization product 31 (FIG. 1a). Therefore, the reaction can be easily monitored.\nIt was observed that the reaction rate between TPCPD and BCN was moderately sensitive to the reaction solvent. Methanol, acetonitrile, […] (DCE), and dioxane were chosen for the kinetic studies. The reaction appears to be faster in polar solvents than in nonpolar solvents. […] In order to utilize the reaction under physiological conditions, the reaction rate was measured at physiological temperature, 37° C."}, "[6]": {"settings": "8 h, within the concentration range studied"}, "[7]": {"settings": "15 mg/kg i.p., compared to the TNBS group"}}, "data": [{"compound": "OCC1[C@H]2CCC#CCC[C@@H]12", "note": "(some centres unmarked) [BCN]", "values": [{"measurement": "time in which reaction with TPCPD finished", "setting": "[1]", "value": "≤ 5", "unit": "min"}, {"measurement": "cytotoxicity", "setting": "RAW cells; [6]", "value": "Neither 6a (FIG. 3b) and nor the product (FIG. 3c) displayed any sign of cytotoxicity"}, {"measurement": "cytotoxicity", "setting": "RAW cells; 24 h, 1 mM", "value": 60, "unit": "%"}]}, {"compound": "CN(CC#C[Si](c1ccccc1)(c1ccccc1)C(C)(C)C)C(=O)C1=C2C(=C(c3ccccc3)C1=O)c1cccc3cccc2c13", "note": "[Compound 10d]", "values": [{"measurement": "LPS-induced TNF-α expression / secretion", "setting": "TNF-α", "value": "suppressed TNF-α secretion, but it did not show any dose-dependent effect"}, {"measurement": "λem emission wavelength", "setting": "[2]", "value": 456, "unit": "nm"}, {"measurement": "λex excitation wavelength", "setting": "[2]", "value": 378, "unit": "nm"}, {"measurement": "Φ quantum yield", "setting": "[2]", "value": 0.21}, {"measurement": "k CO release rate", "setting": "[3]", "value": "22.6 ± 0.2", "unit": "h⁻¹"}]}, {"compound": "C#CCOC(=O)C1=C2C(=C(c3ccccc3)C1=O)c1cccc3cccc2c13", "note": "[Compound 10e]", "values": [{"measurement": "λem emission wavelength", "setting": "[2]", "value": 454, "unit": "nm"}, {"measurement": "λex excitation wavelength", "setting": "[2]", "value": 367, "unit": "nm"}, {"measurement": "Φ quantum yield", "setting": "[2]", "value": 0.14}]}, {"compound": "C#CCNC(=O)C1=C2C(=C(c3ccccc3)C1=O)c1cccc3cccc2c13", "note": "[Compound 10f]", "values": [{"measurement": "λem emission wavelength", "setting": "[2]", "value": 456, "unit": "nm"}, {"measurement": "λex excitation wavelength", "setting": "[2]", "value": 370, "unit": "nm"}, {"measurement": "Φ quantum yield", "setting": "[2]", "value": 0.18}]}, {"compound": "OC[C@@H]1[C@H]2CCc3c(c(-c4ccccc4)c(-c4ccccc4)c(-c4ccccc4)c3-c3ccccc3)CC[C@@H]12", "note": "[Compound 31]", "values": [{"measurement": "cytotoxicity", "setting": "RAW cells; [6]", "value": "Neither 6a (FIG. 3b) and nor the product (FIG. 3c) displayed any sign of cytotoxicity"}, {"measurement": "cytotoxicity", "setting": "RAW cells; 24 h, within the concentration range tested", "value": "not cytotoxic"}]}, {"compound": "CC(C)N1CCc2cc(-c3ccccc3)c3c(c2C1=O)-c1cccc2cccc-3c12", "note": "[Compound 44b]", "values": [{"measurement": "LPS-induced TNF-α expression / secretion", "setting": "TNF-α", "value": "did not show any TNF-α suppression effects"}, {"measurement": "survival rate", "setting": "TNBS induced colitis; 15 mg/kg i.p. 1 h before and 24, 48, 72 h after TNBS", "value": "no similar effects were observed"}, {"measurement": "colon length", "setting": "TNBS induced colitis; [7]", "value": "no similar effects were observed"}, {"measurement": "colon thickness", "setting": "TNBS induced colitis; [7]", "value": "no similar effects were observed"}, {"measurement": "injury score", "setting": "TNBS induced colitis; [7]", "value": "no similar effects were observed"}]}, {"compound": "Cc1c2c(c3c(c1-c1ccccc1)-c1cccc4cccc-3c14)C(=O)N(C(C)C)CC2", "note": "[Compound 44c]", "values": [{"measurement": "LPS-induced TNF-α expression / secretion", "setting": "TNF-α", "value": "did not show any TNF-α suppression effects"}]}, {"compound": "CN1Cc2c(c3c(c(-c4ccccc4)c2[Si](c2ccccc2)(c2ccccc2)C(C)(C)C)-c2cccc4cccc-3c24)C1=O", "note": "[Compound 44d]", "values": [{"measurement": "LPS-induced TNF-α expression / secretion", "setting": "TNF-α", "value": "did not show any TNF-α suppression effects"}]}, {"compound": "C#CC(C)OC(=O)C1=C2C(=C(c3ccccc3)C1=O)c1cccc3cccc2c13", "note": "(centres unmarked) [Compound 104]", "values": [{"measurement": "K CO release", "setting": "[4]", "value": "0.012 ± 0.0003", "unit": "h⁻¹"}]}, {"compound": "C#CC(C)(C)OC(=O)C1=C2C(=C(c3ccccc3)C1=O)c1cccc3cccc2c13", "note": "[Compound 105]", "values": [{"measurement": "K CO release", "setting": "[4]", "value": "1.28 ± 0.183", "unit": "h⁻¹"}]}, {"compound": "C#CC(C)NC(=O)C1=C2C(=C(c3ccccc3)C1=O)c1cccc3cccc2c13", "note": "(centres unmarked) [Compound 108]", "values": [{"measurement": "K CO release", "setting": "[4]", "value": "0.058 ± 0.003", "unit": "h⁻¹"}]}, {"compound": "C#CC(C)(C)NC(=O)C1=C2C(=C(c3ccccc3)C1=O)c1cccc3cccc2c13", "note": "[Compound 109]", "values": [{"measurement": "K CO release", "setting": "[4]", "value": "3.31 ± 0.28", "unit": "h⁻¹"}]}, {"compound": "C#CCCN(CCN1CCOCC1)C(=O)C1=C2C(=C(c3ccccc3)C1=O)c1cccc3cccc2c13", "note": "[Compound 110]", "values": [{"measurement": "time in which CO release was finished", "setting": "[4]", "value": "CO release was finished in 4 h."}]}, {"compound": "C#CC(C)(C)NC(=O)C1=C2C(=C(SC)C1=O)c1cccc3cccc2c13", "note": "[Compound 111]", "values": [{"measurement": "K CO release", "setting": "[4]", "value": "4.63 ± 0.28", "unit": "h⁻¹"}]}, {"compound": "C#CC(C)(C)OC(=O)C1=C2C(=C(SC)C1=O)c1cccc3cccc2c13", "note": "[Compound 112]", "values": [{"measurement": "K CO release", "setting": "[4]", "value": "1.29 ± 0.07", "unit": "h⁻¹"}]}, {"compound": "C#CCOC(=O)C1=C(c2ccccc2)C(c2ccccc2)=C(c2ccccc2)C1=O", "note": "[Compound 119]", "values": [{"measurement": "K CO release", "setting": "[4]", "value": "5.89 ± 0.61", "unit": "h⁻¹"}]}, {"compound": "C#CC(C)OC(=O)C1=C(c2ccccc2)C(c2ccccc2)=C(c2ccccc2)C1=O", "note": "(centres unmarked) [Compound 120]", "values": [{"measurement": "K CO release", "setting": "[4]", "value": "9.4 ± 0.02", "unit": "h⁻¹"}]}, {"compound": "C#CC(C)Oc1ccccc1C1=C2C(=C(C(=O)N3CCOCC3)C1=O)c1cccc3cccc2c13", "note": "(centres unmarked) [Compound 125]", "values": [{"measurement": "K CO release", "setting": "[4]", "value": "0.10 ± 0.003", "unit": "h⁻¹"}]}, {"compound": "C#CCN(c1ccccc1C1=C2C(=C(C(=O)N3CCOCC3)C1=O)c1cccc3cccc2c13)S(C)(=O)=O", "note": "[Compound 127]", "values": [{"measurement": "K CO release", "setting": "[4]", "value": "0.88 ± 0.01", "unit": "h⁻¹"}]}, {"compound": "O=C1C(c2ccccc2)=C(c2ccccc2)C(c2ccccc2)=C1c1ccccc1", "note": "[TPCPD]", "values": [{"measurement": "k2 second order rate constant", "setting": "[5]; CH3CN, r.t.", "value": 0.26, "unit": "M⁻¹ s⁻¹"}, {"measurement": "k2 second order rate constant", "setting": "[5]; DCE, r.t.", "value": 0.17, "unit": "M⁻¹ s⁻¹"}, {"measurement": "k2 second order rate constant", "setting": "[5]; Dioxane, r.t.", "value": 0.096, "unit": "M⁻¹ s⁻¹"}, {"measurement": "k2 second order rate constant", "setting": "[5]; MeOH, 37° C.", "value": 1.1, "unit": "M⁻¹ s⁻¹"}, {"measurement": "k2 second order rate constant", "setting": "[5]; MeOH, r.t.", "value": 0.50, "unit": "M⁻¹ s⁻¹"}, {"measurement": "toxicity (Triton 0.1% = 100%)", "setting": "RAW cells; 8 h, 50 μM", "value": 44, "unit": "%"}, {"measurement": "toxicity (Triton 0.1% = 100%)", "setting": "RAW cells; 8 h, 100 μM", "value": 49, "unit": "%"}, {"measurement": "cytotoxicity", "setting": "RAW cells; 24 h, concentrations higher than 12.5 μM", "value": "more than 50%"}]}, {"compound": "C1#CCCCCCC1", "note": "[cyclooctyne]", "values": [{"measurement": "time in which reaction with TPCPD finished", "setting": "[1]", "value": 15, "unit": "min"}]}, {"compound": "fluorocyclooctyne [fluorocycolooctyne]", "values": [{"measurement": "time after which reaction with TPCPD had not reached completion", "setting": "[1]", "value": "> 24", "unit": "h"}]}]}
